Assay results as given in patent US12415789B2, “Macrocycles comprising a 4-amido-2,4-pentadienoate moiety for the treatment of hypoxic cancers” (Aarhus Universitet, priority 2019, dated 2025).
Where two headings read alike, the source gives them in different places.

How the values were obtained:
Type in all cases: cell-based, human
HCT116 cells = assay: Viability assay (CellTiter Blue), HCT116 cells, hypoxia vs normoxia; conditions: for Index [3] Selectivity index (IC50 [2]/IC50 [1]): HCT116, normoxic IC50 / hypoxic IC50
Experimental: (§1) PANC-1 and HaCat cells (PANC-1: RRID:CVCL 0480, taken from a person, HaCat: RRID:CVCL 0038) were cultured in DMEM (Gibco, Cat #: 21969-035) supplemented with FBS (10%, Gibco, Cat #: A31698-02), Penicillin/Streptomycin (1%, Sigma-Aldrich, Cat #: P0781), and Ala-Gln (200 μM, Sigma-Aldrich, Cat #: G8541). BxPC3 cells (RRID:CVCL 0186, taken from a person) were cultured in RPMI 1640 (Gibco, Cat #: 61870-010) supplemented with FBS (10%) and Penicillin/Streptomycin (1%). U2OS (RRID:CVCL 0042) and HCT116 cells (RRID:CVCL 0291, ATCC CCL-247) were cultured in McCoy's 5A (Sigma cat. no. M9309) supplemented with FBS (10%) and Penicillin/Streptomycin (1%). Cells were grown under normoxic conditions in T75 flasks (Biolite, Thermo Scientific, Cat #: 130190) in a humidified atmosphere with 5% CO2 at 37° C. For hypoxic conditions cells were placed in a modular incubator chamber (MIC-101, Billups-Rothenberg) equipped with a 10-cm dish with milliQ water and flushed with CO2/N2 (5%/95%, BioNERT, AGA Cat #: 100466065) for 8 minutes at 20-25 L/minute. Cells were passaged approximately every third day by trypsination (Sigma-Aldrich, Cat #: T4049) followed by transfer of ⅕^th of the cells to a new flask. All cell cultures were handled aseptically in a laminar air flow bench and grown in sterile-filtered (Jetbiofil, Cat #: FPE204500) medium according to ATCC's recommendations. All human cell lines were correctly identified by short tandem repeat analysis and tested free of mycoplasma contamination by MycoAlert (Lonza, Cat #: LT07-218).
(§2) Cells were seeded in black 96-well plates (2000 cells/well, 75 μL/well, ThermoFisher Scientific, Cat #: 137103) in complete medium. Subsequently, the cells were allowed to adhere to the substratum overnight. The next day, compounds were serially diluted in DMSO as 200× solutions. The 200× solutions of compounds were initially diluted in complete medium to 4× solutions containing 2% DMSO. Finally, the compounds were given to cells by the addition of 25 μL/well in triplicates resulting in 1× solutions of compounds in 100 μL/well. The cells were then incubated under either normoxia or hypoxia. 90 minutes before the end of the experiment, all cells were given CellTiter Blue (20 μL/well, Promega, Cat #: G8080) and reincubated under normoxia for the remaining time of the experiment. The viability of the cells was assessed by measuring fluorescence in a plate reader (ex/em: 552±10/598±10, Tecan Spark 10M). Data were normalized to the two lowest concentrations of compound and fitted to a 4-parameter nonlinear regression in Prism 7.04 for Windows, GraphPad Software, La Jolla Calif. USA. IC50 values were extrapolated as the X value at Y=50%. Results can be found in Table 1 and the corresponding dose-response curves seen in FIGS. 12 to 17 and in FIGS. 9 to 10.

PANC-1 cells = assay: Viability assay (CellTiter Blue), PANC-1 cells, hypoxia vs normoxia; conditions: for Index [3] Selectivity index (IC50 [2]/IC50 [1]): PANC1, normoxic IC50 / hypoxic IC50
Experimental: as §1, §2

BxPC3 cells = assay: Viability assay (CellTiter Blue), BxPC3 cells, hypoxia vs normoxia; conditions: for Index [3] Selectivity index (IC50 [2]/IC50 [1]): BxPC3, normoxic IC50 / hypoxic IC50
Experimental: as §1, §2

U2OS cells = assay: Viability assay (CellTiter Blue), U2OS cells, hypoxia vs normoxia; conditions: for Index [3] Selectivity index (IC50 [2]/IC50 [1]): normoxic IC50 / hypoxic IC50
Experimental: (§3) Cells were seeded in black 96-well plates (2000 cells/well, 75 μL/well, ThermoFisher Scientific, Cat #: 137103) in complete medium. Subsequently, the cells were allowed to adhere to the substratum overnight. The next day, compounds were serially diluted in DMSO as 200× solutions. The 200× solutions of compounds were initially diluted in complete medium to 4× solutions containing 2% DMSO. Finally, the compounds were given to cells by the addition of 25 μL/well in triplicates resulting in 1× solutions of compounds in 100 μL/well. The cells were then incubated under either normoxia or hypoxia. 90 minutes before the end of the experiment, all cells were given CellTiter Blue (20 μL/well, Promega, Cat #: G8080) and reincubated under normoxia for the remaining time of the experiment. The viability of the cells was assessed by measuring fluorescence in a plate reader (ex/em: 552±10/598±10, Tecan Spark 10M). Data were normalized to the two lowest concentrations of compound and fitted to a 4-parameter nonlinear regression in Prism 7.04 for Windows, GraphPad Software, La Jolla Calif. […] IC50 values were extrapolated as the X value at Y=50%.

HaCat cells = assay: Viability assay (CellTiter Blue), HaCat cells, hypoxia vs normoxia; conditions: for Index [3] Selectivity index (IC50 [2]/IC50 [1]): normoxic IC50 / hypoxic IC50
Experimental: as §3

[1] = HCT116, hypoxic conditions, read-out: IC50 (μM) [1]
[2] = HCT116, normoxic conditions, read-out: IC50 (μM) [2]
[3] = PANC1, hypoxic conditions, read-out: IC50 (μM) [1]
[4] = PANC1, normoxic conditions, read-out: IC50 (μM) [2]
[5] = BxPC3, hypoxic conditions, read-out: IC50 (μM) [1]
[6] = BxPC3, normoxic conditions, read-out: IC50 (μM) [2]
[7] = hypoxic conditions, read-out: IC50 (μM) [1]
[8] = normoxic conditions, read-out: IC50 (μM) [2]
[9] = Homo sapiens, HCT-116, HCT116, hypoxic conditions, read-out: IC50 (μM) [1]
[10] = Homo sapiens, HCT-116, HCT116, normoxic conditions, read-out: IC50 (μM) [2]
[11] = Homo sapiens, PANC-1, PANC1, hypoxic conditions, read-out: IC50 (μM) [1]
[12] = Homo sapiens, PANC-1, PANC1, normoxic conditions, read-out: IC50 (μM) [2]
[13] = Homo sapiens, BXPC-3, BxPC3, hypoxic conditions, read-out: IC50 (μM) [1]
[14] = Homo sapiens, BXPC-3, BxPC3, normoxic conditions, read-out: IC50 (μM) [2]
[15] = Homo sapiens, hypoxic conditions, read-out: IC50 (μM) [1]
[16] = Homo sapiens, normoxic conditions, read-out: IC50 (μM) [2]

Structure (SMILES) | IC50 (HCT116 cells; [1]) [µM] | IC50 (HCT116 cells; [2]) [µM] | IC50 (PANC-1 cells; [3]) [µM] | IC50 (PANC-1 cells; [4]) [µM] | IC50 (BxPC3 cells; [5]) [µM] | IC50 (BxPC3 cells; [6]) [µM] | Index [3] Selectivity index (IC50 [2]/IC50 [1]) (HCT116 cells) | Index [3] Selectivity index (IC50 [2]/IC50 [1]) (PANC-1 cells) | Index [3] Selectivity index (IC50 [2]/IC50 [1]) (BxPC3 cells) | other results
CCCCCCCCCCCCc1ccc2c(c1)OCCNC(=O)CN(C)C(=O)/C=C/C(CO)NC2=O (stereo not shown) [PH462, (E)-16-dodecyl-11-(hydroxymethyl)-7-methyl-3,4,6,7,11,12-hexahydro-benzo[n][1]oxa[4,7,12]triazacyclopentadecine-5,8,13(2H)-trione] | > 50 | > 50 | > 50 | > 50 | > 50 | > 50 | – | – | – | –
C=C1/C=C/C(=O)N(C)CC(=O)N2CCC[C@H]2COc2cc(CCCCCCCCCCCC)ccc2C(=O)N1 [PH921, (S,E)-16-dodecyl-7-methyl-11-methylene-2,3,6,7,11,12,19,19a-octahydro-1H,5H-benzo[n]pyrrolo[2,1-c][1]oxa[4,7,12]triazacyclo-pentadecine-5,8,13-trione] | 2.6 | 8.4 | 2.6 | 13.7 | 6 | 12.3 | 3.3 | 5.3 | 2.1 | –
C=C1C=CC(=O)N(C)CC(=O)NCCOc2cc(CCCCCCCCCCCC)ccc2C(=O)N1 [PH466, (E)-16-dodecyl-7-methyl-11-methylene-3,4,6,7,11,12-hexahydro-benzo[n][1]oxa[4,7,12]triazacyclopentadecine-5,8,13(2H)-trione] | 0.98 | 4.2 | 1.8 | 4.1 | 3.4 | 4.9 | 4.3 | 2.3 | 1.4 | IC50 (U2OS cells; [7]): 2.1 µM; Index [3] Selectivity index (IC50 [2]/IC50 [1]) (U2OS cells): 1.8; IC50 (U2OS cells; [8]): 3.8 µM; IC50 (HaCat cells; [7]): 3.9 µM; Index [3] Selectivity index (IC50 [2]/IC50 [1]) (HaCat cells): 1.3; IC50 (HaCat cells; [8]): 4.9 µM
C=C1/C=C/C(=O)N(C)CC(=O)N[C@@H](CC(=O)OC)COc2cc(CCCCCCCCCCCC)ccc2C(=O)N1 [PH832, Methyl (S,E)-2-(16-dodecyl-7-methyl-11-methylene-5,8,13-trioxo-2,3,4,5,6,7,8,11,12,13-decahydrobenzo[n][1]oxa[4,7,12]-triazacyclopentadecin-3-yl)acetate] | 5 | 5.6 | 4.3 | 23.3 | – | – | 1.1 | 5.4 | – | –
C=C1/C=C/C(=O)N(C)CC(=O)N[C@@H](CC(=O)N2CCOCC2)COc2cc(CCCCCCCCCCCC)ccc2C(=O)N1 [PH741, (S,E)-16-dodecyl-7-methyl-11-methylene-3-(2-morpholino-2-oxoethyl)-3,4,6,7,11,12-hexahydrobenzo[n][1]oxa[4,7,12]triazacyclopentadecine-5,8,13(2H)-trione] | 3.3 | 16.2 | 7.8 | 16.3 | – | – | 4.9 | 2.1 | – | –
C#CCNC(=O)C[C@H]1COc2cc(CCCCCCCCCCCC)ccc2C(=O)NC(=C)/C=C/C(=O)N(C)CC(=O)N1 [PH845, (S,E)-2-(16-dodecyl-7-methyl-11-methylene-5,8,13-trioxo-2,3,4,5,6,7,8,11,12,13-decahydrobenzo[n][1]oxa[4,7,12]-triazacyclopentadecin-3-yl)-N-(prop-2-yn-1-yl)acetamide] | 4.2 | > 50 | 3.1 | > 50 | – | – | >12.4 | >16.4 | – | –
Nc1n[n+]([O-])c2ccccc2[n+]1[O-] [Tirapazamine, reference compound] | – | – | – | – | – | – | 4.0 | 7.1 | 2.8 | IC50 (HCT116 cells; [9]): 14.4 µM; IC50 (HCT116 cells; [10]): 58 µM; IC50 (PANC-1 cells; [11]): 11 µM; IC50 (PANC-1 cells; [12]): 76 µM; IC50 (BxPC3 cells; [13]): 14 µM; IC50 (BxPC3 cells; [14]): 39 µM; IC50 (U2OS cells; [15]): 98 µM; IC50 (U2OS cells; [16]): 18 µM; Index [3] Selectivity index (IC50 [2]/IC50 [1]) (U2OS cells): 5.5; IC50 (HaCat cells; [15]): 20 µM; IC50 (HaCat cells; [16]): 106 µM; Index [3] Selectivity index (IC50 [2]/IC50 [1]) (HaCat cells): 5.2
Cn1c(COP(=O)(NCCBr)NCCBr)cnc1[N+](=O)[O-] [TH302, Evofosfamide, reference compound] | – | – | – | – | – | – | 6.9 | 7.2 | 3.4 | IC50 (HCT116 cells; [9]): 6.2 µM; IC50 (HCT116 cells; [10]): 43 µM; IC50 (PANC-1 cells; [11]): 9.4 µM; IC50 (PANC-1 cells; [12]): 69 µM; IC50 (BxPC3 cells; [13]): 21 µM; IC50 (BxPC3 cells; [14]): 71 µM

Now from value to molecule, other results behind:

IC50 (HCT116 cells; [1]) [µM] | IC50 (HCT116 cells; [2]) [µM] | IC50 (PANC-1 cells; [3]) [µM] | IC50 (PANC-1 cells; [4]) [µM] | IC50 (BxPC3 cells; [5]) [µM] | IC50 (BxPC3 cells; [6]) [µM] | Structure (SMILES) | Index [3] Selectivity index (IC50 [2]/IC50 [1]) (HCT116 cells) | Index [3] Selectivity index (IC50 [2]/IC50 [1]) (PANC-1 cells) | Index [3] Selectivity index (IC50 [2]/IC50 [1]) (BxPC3 cells) | other results
3.7 | 3.5 | 5.4 | 5.8 | 5.5 | 6.3 | C=C1/C=C/C(=O)N(C)CC(=O)N2CC(F)(F)C[C@H]2COc2cc(CCCCCCCCCCCC)ccc2C(=O)N1 [PH905, (S,E)-16-dodecyl-2,2-difluoro-7-methyl-11-methylene-2,3,6,7,11,12,19,19a-octahydro-1H,5H-benzo[n]pyrrolo[2,1-c][1]oxa-[4,7,12]triazacyclopentadecine-5,8,13-trione] | 1.0 | 1.1 | 1.1 | –
14.7 | 17.4 | > 50 | > 50 | > 50 | > 50 | CCCCCCCCCCCCc1ccc2c(c1)OC[C@H](CCCCNC(=O)OC(C)(C)C)NC(=O)CN(C)C(=O)/C=C/[C@H](CO)NC2=O [PH908, tert-butyl (4-((3S,11R,E)-16-dodecyl-11-(hydroxymethyl)-7-methyl-5,8,13-trioxo-2,3,4,5,6,7,8,11,12,13-decahydrobenzo[n][1]oxa-[4,7,12]triazacyclopentadecin-3-yl)butyl)carbamate] | 1.2 | – | – | –
> 50 | > 50 | > 50 | > 50 | > 50 | > 50 | CCCCCCCCCCCCc1ccc2c(c1)OC[C@H](CC(=O)OC)NC(=O)CN(C)C(=O)/C=C/[C@H](CO)NC2=O [PH830, Methyl 2-((3S,11R,E)-16-dodecyl-11-(hydroxymethyl)-7-methyl-5,8,13-trioxo-2,3,4,5,6,7,8,11,12,13-decahydrobenzo[n][1]oxa[4,7,12]-triazacyclopentadecin-3-yl)acetate] | – | – | – | –
1.4 | > 28 | 2.3 | > 28 | – | – | C=C1/C=C/C(=O)N(C)CC(=O)N[C@@H](CC(=O)NC2CC2)COc2cc(CCCCCCCCCCCC)ccc2C(=O)N1 [PH906, (S,E)-N-cyclopropyl-2-(16-dodecyl-7-methyl-11-methylene-5,8,13-trioxo-2,3,4,5,6,7,8,11,12,13-decahydrobenzo[n][1]oxa[4,7,12]-triazacyclopentadecin-3-yl)acetamide] | >20.7 | >12.1 | – | –
